The results in this text go back to US10138212B2, “Aminoquinazoline compounds as A2A antagonist” (Merck Sharp & Dohme Corp., priority 2015, dated 2018).

One assay deals with human A2a receptor (Homo sapiens (Human), UniProt P29274). The assay is described as follows: A2a competition binding assay using Scintillation Proximity technology. Here is the method:
(§1) Binding affinities of compounds of the invention for the human A2a receptor were determined in a competition binding assay using Scintillation Proximity technology. Thus, 1* μg, or preferably 0.25 μg of membranes from HEK293 cells expressing the human A2a receptor were incubated with a compound of the invention at concentrations ranging from 3000 nM to 0.15 nM in a reaction mixture containing also 0.5 nM of a tritiated form of 5-amino-7-[2-phenethyl]-2-(furan-2-yl)-7H-pyrazolo[4,3-e][1,2,4]triazolo[1,5-c]pyrimidine (the tritiated compound) and 25 μg of wheat germ agglutin-coated yttrium silicate SPA beads for one hour at room temperature with agitation. The beads were then allowed to settle to the bottom of the wells for 1 hr, after which the membrane-associated radioactivity was determined by scintillation counting in a TopCount microplate reader. Ki values were determined using the Cheng-Prusoff equation.
HEK293 cells expressing the human, rat, dog or monkey adenosine 2a receptor (Purchased from Perkin-Elmer # RBHA2AM400UA).
The Tritiated compound was prepared in-house by MRL Radiochemistry according to published methods.
Wheat germ agglutinin-coated yttrium silicate SPA beads (GE Healthcare #RPNQ0023). Dilute to 25 mg/ml in assay buffer.
Assay Buffer was prepared in house: Dulbecco's calcium and magnesium free phosphate buffered saline+10 mM MgCl2
Adenosine deaminase from calf intestine, 10 mg/2 ml (Roche #10 102 105 001).
A2a antagonist standard (9-chloro-1-(2-furanyl)-[1,2,4]triazolo1,5-c]quinazolin-5-amine from Tocris Bioscience)
Make eight 1:3 serial dilutions in 100% DMSO from a 3 mM compound stock
Transfer 50 nl of compound into a 384-well OptiPlate (Perkin Elmer).
Typically, final concentrations of compound used in the assay ranged from 3000 nM to 0.152 nM.
Dilute a solution of the Tritiated compound to 1.25 nM in assay buffer. This is a 2.5× solution. The final concentration in the assay is 0.5 nM. Calculate the concentration by counting two 5 μl aliquots.
Use *1 ug or preferrably 0.25 ug of membrane/well. Dilute membranes to 9.7 μg/ml in assay buffer. Treat with 20 ug/ml adenosine deaminase (ADA) for 15 minutes at room temperature to degrade endogenous adenosine.
Use 25 μg/well wheat germ agglutinin-coated yttrium silicate SPA beads.
Mix ADA-treated membranes and SPA beads together for 30 min prior to assay.
To the Perkin-Elmer Optiplate-384 containing the compound titration add 20 μl of 2.5× solution of the Tritiated compound and 30 μl of the membrane-bead mixture. Incubate for one hour at room temperature with agitation.
Include total binding (assay buffer+1% DMSO) and non-specific binding (CGS15943, 1 μM) wells.
Allow the beads to settle for one hour.
A curve fitting program (i.e., Prism, Activity Base, Chemcart) is used to determine the EC50. The Ki value is calculated using the Cheng-Prusoff equation. Ki=EC50/(1+(radioligand concentration/Kd))
Using the foregoing assay method, the Ki results were obtained using the compounds of the invention described in Tables IIIa, IIIb, and IV. Each example compound tested is reported in the following format: Example number: A2a Ki reported in nM. Thus, for example, the compound Ex-1 was determined to have an Ki using the above-described assay and calculations, of 10.0 nM.

Another assay has as its target human A1 receptor (Homo sapiens (Human), UniProt P30542). The assay is described as follows: A1 competition binding assay using Scintillation Proximity technology; selectivity = A1 binding Ki / A2a binding Ki. The conditions noted are these: A1 binding Ki divided by A2a binding Ki. The procedure:
as §1, with “A1” for “A2a”, “5” for “1* μg, or preferably 0.25 μg”, “CHO-K1” for “HEK293”, “0.7” for “0.5”, “8-Cyclopentyl-1,3-dipropylxanthine” for “5-amino-7-[2-phenethyl]-2-(furan-2-yl)-7H-pyrazolo[4,3-e][1,2,4]triazolo[1,5-c]pyrimidine”, “in a similar fashion described with A2a binding.” for “using the Cheng-Prusoff equation.”
• Cells expressing the human, rat, dog or monkey adenosine 1 receptor (Purchased from Perkin-Elmer # ES-010-M400UA • [^3H]DPCPX (purchased from Perkin-Elmer NET-974, 8-cyclopentyl-1,3-dipropylxanthine, [dipropyl-2,3-^3H(N)]. • Wheatgerm agglutinin-coated yttrium silicate SPA beads (Purchased from GE Healthcare #RPNQ0023). Dilute to 25 mg/ml in assay buffer. Store at 4° C. • Assay Buffer—Dulbecco's phosphate buffered saline without calcium and without magnesium+10 mM MgCl2 • Adenosine deaminase from calf intestine, 10 mg/2 ml (Roche #10 102 105 001). • DMSO • DPCPX (A1 antagonist) from Tocris Bioscience Compound Dilution • Dilute compounds to 1 mM in 100% DMSO
Make serial dilutions as necessary (i.e., 1:10, 1:3) in 100% DMSO.
Dilute 1:20 into assay buffer (i.e. 3 ul into 57 ul buffer). This is a 5× solution in 5% DMSO.
• Dilute [^3H]DPCPX to 1.75 nM in assay buffer. This is a 2.5× solution. The final concentration in the assay is 0.7 nM. Calculate the concentration by counting two 5 ul aliquots. Membrane Preparation • Use 5 ug of membrane/well. Dilute membranes to 250 ug/ml in assay buffer. Treat with 20 ug/ml adenosine deaminase (ADA) for 15 minutes at room temperature to degrade endogenous adenosine. Membrane-Bead Mixture • Use 25 ug/well wheatgerm agglutinin-coated yttrium silicate SPA beads • Mix ADA-treated membranes and SPA beads together for 30 min prior to assay. Assay Assembly • Add in order to a Perkin-Elmer Optiplate-384: 10 ul of 5× compound, 20 ul of 2.5× [^3H]DPCPX, 20 ul membrane-bead mixture. Incubate for one hour at room temperature with agitation. • Include total binding (assay buffer+1% DMSO) and non-specific binding (DPCPX, 1 uM) wells. Counting and Calculations

Where [1] appears, read: 0.25 μg of membranes from HEK293 cells expressing the human A2a receptor.
Where [2] appears, read: * assay run with 1 μg of membranes versus 0.25 μg, HEK293 cells expressing the human A2a receptor.

Chain of human A2a receptor (P29274 whole entry): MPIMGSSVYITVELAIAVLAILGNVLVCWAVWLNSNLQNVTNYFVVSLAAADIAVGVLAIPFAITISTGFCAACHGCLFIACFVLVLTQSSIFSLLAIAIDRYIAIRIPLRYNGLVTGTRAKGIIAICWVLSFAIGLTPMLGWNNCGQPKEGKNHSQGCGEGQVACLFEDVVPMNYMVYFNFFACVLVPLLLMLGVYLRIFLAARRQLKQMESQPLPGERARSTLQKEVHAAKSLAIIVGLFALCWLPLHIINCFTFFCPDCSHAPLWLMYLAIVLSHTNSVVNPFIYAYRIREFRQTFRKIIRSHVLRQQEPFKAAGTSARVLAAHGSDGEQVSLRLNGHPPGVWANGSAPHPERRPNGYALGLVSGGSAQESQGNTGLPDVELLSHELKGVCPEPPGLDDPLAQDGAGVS
Chain of human A1 receptor (P30542 whole entry): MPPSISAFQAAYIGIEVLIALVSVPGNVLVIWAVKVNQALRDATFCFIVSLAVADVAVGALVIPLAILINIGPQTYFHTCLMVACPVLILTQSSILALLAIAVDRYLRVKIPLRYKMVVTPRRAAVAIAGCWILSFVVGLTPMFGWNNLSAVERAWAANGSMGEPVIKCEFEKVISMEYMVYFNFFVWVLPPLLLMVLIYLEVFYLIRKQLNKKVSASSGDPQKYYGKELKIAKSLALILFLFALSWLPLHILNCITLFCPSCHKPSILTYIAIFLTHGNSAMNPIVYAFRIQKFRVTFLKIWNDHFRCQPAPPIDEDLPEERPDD

At human A2a receptor (setting [1]), `COc1cccc2c(C(=O)NCc3nc(C)ccc3C)nc(N)nc12` [Example 11, 2-amino-N-[(3,6-dimethyl-2-pyridyl)methyl]-8-methoxy-quinazoline-4-carboxamide] registered an inhibitory constant (Ki) of 0.2 nM. Also, the “A2a selectivity (A2a A1 binding selectivity)” value (“A2a selectivity” for short) on human A1 receptor is 208.

As for `COc1cccc2c(C(=O)NCc3ccccc3-c3cccnc3)nc(N)nc12` [Example 41, 2-amino-8-methoxy-N-[[2-(3-pyridyl)phenyl]methyl]quinazoline-4-carboxamide], the affinity at human A2a receptor (setting [2]), expressed as Ki, was 9.2 nM. Moreover, on human A1 receptor, the “A2a selectivity” value is reported as 56.

At human A2a receptor (setting [1]), `COc1cccc2c(C(=O)NC3CCc4ccccc4C3)nc(N)nc12` (stereo not shown) [Example 34, 2-amino-8-methoxy-N-[2-tetralin-2-yl]quinazoline-4-carboxamide] showed a Ki of 20 nM. At human A1 receptor, the “A2a selectivity” value amounted to 46.

Regarding `Cc1ccc(CCNC(=O)c2nc(N)nc3c(F)cccc23)nc1` [Example 73, 2-amino-8-fluoro-N-[2-(5-methyl-2-pyridyl)ethyl)quinazoline-4-carboxamide], at human A2a receptor (setting [1]), the Ki amounted to 225 nM. Also, at human A1 receptor, the “A2a selectivity” value is on record as 33.

For `COc1cccc2c(C(=O)NC(C)(C)c3ccccn3)nc(N)nc12` [Example 39, 2-amino-8-methoxy-N-[1-methyl-1-(2-pyridyl)ethyl]quinazoline-4-carboxamide], on human A2a receptor (setting [1]), the Ki worked out at 415 nM. The “A2a selectivity” value at human A1 receptor is listed as 9.

For the molecule `COc1cccc2c(C(=O)NCc3cccc(COCC4CC4)n3)nc(N)nc12` [Example 50, 2-amino-N-[[6-(cyclopropylmethoxy-methyl)-2-pyridyl]methyl]-8-methoxy-quinazoline-4-carboxamide], the Ki at human A2a receptor (setting [1]) was found to be 1.3 nM. In addition, the “A2a selectivity” value at human A1 receptor stood at 160.

On to `COc1cccc2c(C(=O)NCc3ncccn3)nc(N)nc12` [Example 38, 2-amino-8-methoxy-N-(pyrimidin-2-ylmethyl)quinazoline-4-carboxamide], for which the Ki on human A2a receptor (setting [1]) worked out at 43 nM. Further, the “A2a selectivity” value on human A1 receptor amounted to 94.

For `COc1cccc2c(C(=O)NCc3cccc(COc4ccccc4F)n3)nc(N)nc12` [Example 44, 2-amino-N-[[6-[(2-fluorophenoxy)methyl]-2-pyridyl]methyl]-8-methoxy-quinazoline-4-carboxamide], the Ki at human A2a receptor (setting [1]) is 0.2 nM. At human A1 receptor, the “A2a selectivity” value came out at 531.

Turning to `Nc1nc(C(=O)NCc2ccccc2-n2cccn2)c2cccc(F)c2n1` [Example 62, 2-amino-8-fluoro-N-[(2-pyrazol-1-ylphenyl)methyl]quinazoline-4-carboxamide], the affinity at human A2a receptor (setting [1]), expressed as Ki, was 0.5 nM. The “A2a selectivity” value on human A1 receptor was 297.

In turn, `Cc1cccn2cc(CNC(=O)c3nc(N)nc4c(F)cccc34)nc12` [Example 81, 2-amino-8-fluoro-N-[(8-methylimidazo[1,2-a]pyridin-2-yl)methyl]quinazoline-4-carboxamide] showed a Ki on human A2a receptor (setting [1]) of 6.9 nM. In addition, the “A2a selectivity” value on human A1 receptor came to 12.

For `COc1cccc2c(C(=O)NCc3cccc(-c4cccc(O)c4)n3)nc(N)nc12` [Example 8, 2-amino-N-[[6-(3-hydroxyphenyl)-2-pyridyl]methyl]-8-methoxy-quinazoline-4-carboxamide], on human A2a receptor (setting [2]), the affinity corresponds to a Ki of 3.3 nM. Moreover, the “A2a selectivity” value on human A1 receptor was 4.

For the molecule `COc1cccc2c(C(=O)NCc3cccc(COCC4CCCC4)n3)nc(N)nc12` [Example 49, 2-amino-N-[[6-(cyclopentylmethoxy-methyl)-2-pyridyl]methyl]-8-methoxy-quinazoline-4-carboxamide], affinity at human A2a receptor (setting [1]) was put at a Ki of 0.5 nM. In addition, at human A1 receptor, the “A2a selectivity” value is 251.

Take `Nc1nc(C(=O)NCc2cccc3cccnc23)c2cccc(Cl)c2n1` [Example 91, 2-amino-8-chloro-N-(8-quinolylmethyl)quinazoline-4-carboxamide]: on human A2a receptor (setting [1]), the Ki turned out to be 3 nM. Besides, the “A2a selectivity” value at human A1 receptor came out at 70.

For the molecule `COc1cccc2c(C(=O)NCc3cccc(-c4ccccn4)n3)nc(N)nc12` [Example 10, 2-amino-8-methoxy-N-[[6-(2-pyridyl)-2-pyridyl]methyl]quinazoline-4-carboxamide], on human A2a receptor (setting [1]), affinity was put at a Ki of 1.2 nM. Further, the “A2a selectivity” value on human A1 receptor was 113.

Take `[2H]C([2H])(NC(=O)c1nc(N)nc2c(F)cccc12)c1cccc(Oc2ccc(OCCOC)cc2)n1` [Example 59, 2-amino-N-[dideuterio-[6-[4-(2-methoxyethoxy)phenoxy]-2-pyridyl]methyl]-8-fluoro-quinazoline-4-carboxamide]: on human A2a receptor (setting [2]), the affinity, expressed as Ki, was 3.7 nM. Also, the “A2a selectivity” value on human A1 receptor is listed as 32.

Consider `COc1cccc2c(C(=O)NCc3cccc(C4(O)CCC4)n3)nc(N)nc12` [Example 4, 2-amino-N-[[6-(1-hydroxycyclobutyl)-2-pyridyl]methyl]-8-methoxy-quinazoline-4-carboxamide], for which, on human A2a receptor (setting [1]), the Ki was 0.6 nM. Besides, at human A1 receptor, the “A2a selectivity” value turned out to be 314.

Regarding `COc1cccc2c(C(=O)NCc3nc(C)ccc3F)nc(N)nc12` [Example 20, 2-amino-N-[(3-fluoro-6-methyl-2-pyridyl)methyl]-8-methoxy-quinazoline-4-carboxamide], the Ki at human A2a receptor (setting [1]) stood at 0.5 nM. The “A2a selectivity” value on human A1 receptor amounted to 89.

Molecule `COc1cccc2c(C(=O)NCc3cccc(F)n3)nc(N)nc12` [Example 27, 2-amino-N-[(6-fluoro-2-pyridyl)methyl]-8-methoxy-quinazoline-4-carboxamide] returned a Ki at human A2a receptor (setting [1]) of 1.5 nM. For the same molecule, at human A1 receptor, the “A2a selectivity” value worked out at 148.

Regarding `COc1cccc(CNC(=O)c2nc(N)nc3c(OC)cccc23)n1` [Example 21, 2-amino-8-methoxy-N-[(6-methoxy-2-pyridyl)methyl]quinazoline-4-carboxamide], the affinity on human A2a receptor (setting [1]) corresponds to a Ki of 0.8 nM. Further, the “A2a selectivity” value on human A1 receptor was 82.

Regarding `Nc1nc(C(=O)NCc2cccc(COc3ccccn3)n2)c2cccc(F)c2n1` [Example 46, 2-amino-8-fluoro-N-[[6-(2-pyridyloxymethyl)-2-pyridyl]methyl]quinazoline-4-carboxamide], the inhibitory constant (Ki) on human A2a receptor (setting [1]) worked out at 2.2 nM. Further, the “A2a selectivity” value on human A1 receptor is on record as 484.
